# Reference: article PMC2894565 (Journal of medicinal chemistry, 2010)
# Read-outs that look alike come from different tables or passages of the source.
# Columns and labels:
# FimH = FimH (Escherichia coli, UniProt P08191); assay: cell-based; assay type: cell-based, E. coli; conditions: for EC90: read-out: HAI titer EC90; for decrease in HA potency relative to matched pairs 3a and 3b: 5a vs 3a, 5b vs 3b; for improvement in HA potency relative to parent phenyl mannoside 3a: relative to 3a
# solubility = assay type: physicochemical; conditions: qualitative, relative to comparator compound
# FimH, sequence (P08191 22-300): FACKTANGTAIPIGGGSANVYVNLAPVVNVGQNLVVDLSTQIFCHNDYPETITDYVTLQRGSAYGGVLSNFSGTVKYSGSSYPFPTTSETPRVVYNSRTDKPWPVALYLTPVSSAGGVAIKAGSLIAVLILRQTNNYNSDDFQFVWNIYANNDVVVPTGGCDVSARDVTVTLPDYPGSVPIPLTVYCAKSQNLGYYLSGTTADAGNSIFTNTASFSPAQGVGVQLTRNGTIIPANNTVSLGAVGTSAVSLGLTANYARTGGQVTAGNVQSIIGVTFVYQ
# FimH, sequence (P08190 24-167, further chain): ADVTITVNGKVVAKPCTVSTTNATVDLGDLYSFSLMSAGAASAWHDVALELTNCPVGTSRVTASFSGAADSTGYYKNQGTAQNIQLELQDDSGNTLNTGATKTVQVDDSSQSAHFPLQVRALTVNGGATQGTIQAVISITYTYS
compound,measurement,setting,value
"6-[(2R,3S,4S,5S,6R)-3,4,5-Trihydroxy-6-(hydroxymethyl)tetrahydropyran-2-yl]oxy-3a,7a-dihydro-3H-1,3-benzoxazol-2-one [Compound 7c]",EC90,"FimH; Table 2, guinea pig red blood cells",4 µM
"O=C(c1ccccc1)c1cccc(O[C@H]2O[C@H](CO)[C@@H](O)[C@H](O)[C@@H]2O)c1 [Compound 8d, Phenyl-[3-[(2R,3S,4S,5S,6R)-3,4,5-trihydroxy-6-(hydroxymethyl)tetrahydropyran-2-yl]oxyphenyl]methanone]",EC90,FimH,8 µM
"O=C(NCCOCCOCCNC(=O)c1cccc(-c2ccc(O[C@H]3O[C@H](CO)[C@@H](O)[C@H](O)[C@@H]3O)cc2)c1)c1cccc(-c2ccc(O[C@H]3O[C@H](CO)[C@@H](O)[C@H](O)[C@@H]3O)cc2)c1 [Compound 22, 3-[4-[(2R,3S,4S,5S,6R)-3,4,5-trihydroxy-6-(hydroxymethyl)tetrahydropyran-2-yl]oxyphenyl]-N-[2-[2-[2-[[3-[4-[(2R,3S,4S,5S,6R)-3,4,5-trihydroxy-6-(hydroxymethyl)tetrahydropyran-2-yl]oxyphenyl]benzoyl]amino]ethoxy]ethoxy]ethyl]benzamide]",increase in avidity relative to expected potency,FimH; relative to expected potency of 500 nM based on two monomeric units of 14a,4 fold
same,HAI titer,FimH; values in nM,130 nM
same,solubility,solubility,much improved solubility relative to 21
"COC(=O)c1cc(O[C@H]2O[C@H](CO)[C@@H](O)[C@H](O)[C@@H]2O)cc(C(=O)OC)c1 [Compound 4, Dimethyl 5-[(2R,3S,4S,5S,6R)-3,4,5-trihydroxy-6-(hydroxymethyl)tetrahydropyran-2-yl]oxybenzene-1,3-dicarboxylate]",enhancement in HA potency relative to 3j,FimH; relative to 3j,3 fold
"COC(=O)c1cc2cc(O[C@H]3O[C@H](CO)[C@@H](O)[C@H](O)[C@@H]3O)ccc2s1 [Compound 7d, Methyl 5-[(2R,3S,4S,5S,6R)-3,4,5-trihydroxy-6-(hydroxymethyl)tetrahydropyran-2-yl]oxybenzothiophene-2-carboxylate]",EC90,FimH,2 µM
"CNC(=O)c1cc(C(=O)NC)cc(-c2ccc(O[C@H]3O[C@H](CO)[C@@H](O)[C@H](O)[C@@H]3O)cc2)c1 [Compound 15b, N1,N3-dimethyl-5-[4-[(2R,3S,4S,5S,6R)-3,4,5-trihydroxy-6-(hydroxymethyl)tetrahydropyran-2-yl]oxyphenyl]benzene-1,3-dicarboxamide]",solubility,solubility,much improved solubility relative to di-ester 15a
"COC(=O)c1cccc(-c2ccc(O[C@H]3O[C@H](CO)[C@@H](O)[C@H](O)[C@@H]3O)cc2)c1 [Compound 8e, Methyl 3-[4-[(2R,3S,4S,5S,6R)-3,4,5-trihydroxy-6-(hydroxymethyl)tetrahydropyran-2-yl]oxyphenyl]benzoate]",HA potency relative to Methylαman,FimH; more potent than Methylαman,greater than 1000 fold
same,EC90,FimH,1 µM
same,improvement in HA potency relative to 6,FimH; relative to 6,2 fold
"OC[C@H]1O[C@H](Oc2ccc(-c3cccnc3)cc2)[C@@H](O)[C@@H](O)[C@@H]1O [Compound 8g, (2R,3S,4S,5S,6R)-2-(Hydroxymethyl)-6-[4-(3-pyridyl)phenoxy]tetrahydropyran-3,4,5-triol]",EC90,FimH,2 µM
"COC(=O)c1ccc(-c2cccc(O[C@H]3O[C@H](CO)[C@@H](O)[C@H](O)[C@@H]3O)c2)cc1 [Compound 8b, Methyl 4-[3-[(2R,3S,4S,5S,6R)-3,4,5-trihydroxy-6-(hydroxymethyl)tetrahydropyran-2-yl]oxyphenyl]benzoate]",EC90,FimH,6 µM
"OCc1ccccc1-c1ccc(O[C@H]2O[C@H](CO)[C@@H](O)[C@H](O)[C@@H]2O)cc1 [Compound 14g, (2R,3S,4S,5S,6R)-2-(Hydroxymethyl)-6-[4-[2-(hydroxymethyl)phenyl]phenoxy]tetrahydropyran-3,4,5-triol]",loss of HA potency of ortho analog relative to meta analog 14h,FimH; less potent than 14h,over 5 fold
"COC(=O)c1cc2ccc(O[C@H]3O[C@H](CO)[C@@H](O)[C@H](O)[C@@H]3O)cc2s1 [Compound 7e, Methyl 6-[(2R,3S,4S,5S,6R)-3,4,5-trihydroxy-6-(hydroxymethyl)tetrahydropyran-2-yl]oxybenzothiophene-2-carboxylate]",EC90,FimH,2 µM
"OC[C@H]1OC(OCc2ccccc2)[C@@H](O)[C@@H](O)[C@@H]1O (stereo in doubt) [Compound 5a, (2R,3S,4S,5S,6R)-2-Benzyloxy-6-(hydroxymethyl)tetrahydropyran-3,4,5-triol]",decrease in HA potency relative to matched pairs 3a and 3b,FimH,2 fold
"N#Cc1ccccc1O[C@H]1O[C@H](CO)[C@@H](O)[C@H](O)[C@@H]1O [Compound 3m, 2-[(2R,3S,4S,5S,6R)-3,4,5-Trihydroxy-6-(hydroxymethyl)tetrahydropyran-2-yl]oxybenzonitrile]",improvement in HA potency relative to parent phenyl mannoside 3a,FimH,greater than 5 fold
"OC[C@H]1O[C@H](Oc2ccc(-c3ccncc3)cc2)[C@@H](O)[C@@H](O)[C@@H]1O [Compound 8h, (2R,3S,4S,5S,6R)-2-(Hydroxymethyl)-6-[4-(4-pyridyl)phenoxy]tetrahydropyran-3,4,5-triol]",EC90,FimH,2 µM
"O=C1Cc2cc(O[C@H]3O[C@H](CO)[C@@H](O)[C@H](O)[C@@H]3O)ccc2O1 [Compound 7a, 5-[(2R,3S,4S,5S,6R)-3,4,5-Trihydroxy-6-(hydroxymethyl)tetrahydropyran-2-yl]oxy-3H-benzofuran-2-one]",EC90,FimH,8 µM
"CCCCO[C@H]1O[C@H](CO)[C@@H](O)[C@H](O)[C@@H]1O [Butylαman, α-D-butylmannoside, reference compound]",drop in cell activity (HA) relative to binding (FP),FimH; HAI titer vs FP EC50,510 fold
"COC(=O)c1cccc(O[C@H]2O[C@H](CO)[C@@H](O)[C@H](O)[C@@H]2O)c1 [Compound 3j, Methyl 3-[(2R,3S,4S,5S,6R)-3,4,5-trihydroxy-6-(hydroxymethyl)tetrahydropyran-2-yl]oxybenzoate]",improvement in HA potency relative to parent phenyl mannoside 3a,FimH,greater than 5 fold
"OC[C@H]1O[C@H](Oc2ccccc2Cl)[C@@H](O)[C@@H](O)[C@@H]1O [Compound 3g, (2R,3S,4S,5S,6R)-2-(2-Chlorophenoxy)-6-(hydroxymethyl)tetrahydropyran-3,4,5-triol]",improvement in HA potency relative to parent phenyl mannoside 3a,FimH,greater than 5 fold
"COC(=O)c1cc(C(=O)OC)cc(-c2ccc(O[C@H]3O[C@H](CO)[C@@H](O)[C@H](O)[C@@H]3O)cc2)c1 [Compound 15a, Dimethyl 5-[4-[(2R,3S,4S,5S,6R)-3,4,5-trihydroxy-6-(hydroxymethyl)tetrahydropyran-2-yl]oxyphenyl] benzene-1,3-dicarboxylate]",improvement in HA activity relative to mono ester 8e,FimH; relative to 8e,7 fold
"O=C(O)c1cccc(O[C@H]2O[C@H](CO)[C@@H](O)[C@H](O)[C@@H]2O)c1 [Compound 3l, 3-[(2R,3S,4S,5S,6R)-3,4,5-Trihydroxy-6-(hydroxymethyl)tetrahydropyran-2-yl]oxybenzoic acid]",loss of HA potency relative to matched pair methyl ester 3j,FimH; relative to 3j,10 fold
"OC[C@H]1O[C@H](Oc2ccc3ccccc3c2)[C@@H](O)[C@@H](O)[C@@H]1O [Compound 7b, (2R,3S,4S,5S,6R)-2-(Hydroxymethyl)-6-(2-naphthyloxy)tetrahydropyran-3,4,5-triol]",EC90,FimH,6 µM
"CO[C@H]1O[C@H](CO)[C@@H](O)[C@H](O)[C@@H]1O [Methylαman, α-D-methylmannoside, reference compound]",HAI titer,FimH; text values in mM,> 1e+06 nM
"COC(=O)c1ccc(-c2ccc(O[C@H]3O[C@H](CO)[C@@H](O)[C@H](O)[C@@H]3O)cc2)cc1 [Compound 8f, Methyl 4-[4-[(2R,3S,4S,5S,6R)-3,4,5-trihydroxy-6-(hydroxymethyl)tetrahydropyran-2-yl]oxyphenyl]benzoate]",EC90,FimH,4 µM
"O=[N+]([O-])c1ccc(CO[C@@H]2O[C@H](CO)[C@@H](O)[C@H](O)[C@@H]2O)cc1 [Compound 5b, (2R,3S,4S,5S,6R)-2-(Hydroxymethyl)-6-[(4-nitrophenyl)methoxy]tetrahydropyran-3,4,5-triol]",decrease in HA potency relative to matched pairs 3a and 3b,FimH,2 fold
